Drawing on US20260184707A1, “PHARMACEUTICAL COMPOUNDS FOR THE TREATMENT OF COMPLEMENT MEDIATED DISORDERS” (ALEXION PHARMACEUTICALS, INC., priority 2022, published 2026), this text covers IC50 for 19 molecules.

For the experiment, the target named is T1, Human complement C1s enzyme (Homo sapiens, UniProt P09871).
T1 construct: purified from human serum, Complement Technology, Inc; purchased Complement Technology, Inc; host or cells: human serum (plasma-derived native protein)
T1 sequence (P09871 438-688 limits assumed): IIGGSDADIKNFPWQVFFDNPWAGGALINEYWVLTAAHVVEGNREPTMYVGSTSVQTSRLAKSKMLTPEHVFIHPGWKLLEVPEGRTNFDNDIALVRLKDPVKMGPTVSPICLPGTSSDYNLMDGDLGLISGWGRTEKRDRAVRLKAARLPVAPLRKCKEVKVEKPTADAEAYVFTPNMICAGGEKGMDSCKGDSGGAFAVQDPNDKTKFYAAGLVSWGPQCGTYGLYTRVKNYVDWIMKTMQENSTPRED
T1 sequence (P09871 16-437 partner limits assumed): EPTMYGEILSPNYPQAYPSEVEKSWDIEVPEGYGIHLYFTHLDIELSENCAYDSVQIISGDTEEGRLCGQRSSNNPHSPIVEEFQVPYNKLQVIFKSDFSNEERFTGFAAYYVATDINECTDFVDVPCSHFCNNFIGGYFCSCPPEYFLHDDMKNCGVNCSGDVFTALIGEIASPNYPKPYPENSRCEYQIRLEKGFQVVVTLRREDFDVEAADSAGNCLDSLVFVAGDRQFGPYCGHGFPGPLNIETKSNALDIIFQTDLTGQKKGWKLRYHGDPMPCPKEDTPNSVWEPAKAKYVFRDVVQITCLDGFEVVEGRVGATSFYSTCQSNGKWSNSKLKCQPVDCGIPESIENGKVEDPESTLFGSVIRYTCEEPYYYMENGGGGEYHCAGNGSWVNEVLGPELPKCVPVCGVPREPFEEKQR
The experiment is described as follows: Human C1s enzyme assay. As to conditions: human complement C1s enzyme 1.16 nM, substrate Z-L-Lys-SBzl, A405; read-out: IC50 (Stars). Type of experiment: biochemical. The essentials: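 Thioesterase activity followed colorimetrically (DTNB, A405, 30-s reads) using 100 μM Z-L-Lys-SBzl substrate. Enzyme, human serum-derived C1s at 1.16 nM final, was incubated with test compound for 5 min, room temperature, pH 7.5 Tris buffer with 1 M NaCl. Rate-versus-concentration data fitted by nonlinear regression for IC50.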

Regarding `O=C(Cn1c(-c2ccccc2)ncc(NC(=O)C2CCC(Oc3ccccc3)CC2)c1=O)NCc1cc2cnccc2[nH]1` (stereo not shown) [Compound 49, N-[6-oxo-1-[2-oxo-2-(1H-pyrrolo[3,2-c]pyridin-2-ylmethylamino)ethyl]-2-phenyl-pyrimidin-5-yl]-4-phenoxy-cyclohexanecarboxamide], the IC50 (as a rule, the concentration at which inhibition is half-maximal) was less than 100 nM.
Regarding `O=C(Cn1c(C2=CCCCC2)ncc(NCc2ccc3oc4ccccc4c3c2)c1=O)NCc1cc2cnccc2[nH]1` [Compound 241, N-((1H-pyrrolo[3,2-c]pyridin-2-yl)methyl)-2-(2-(cyclohex-1-en-1-yl)-5-((dibenzo[b,d]furan-2-ylmethyl)amino)-6-oxopyrimidin-1(6H)-yl)acet-amide], the IC50 is less than 100 nM.
The figure for `C[C@@H](Nc1cnc(C2=CCCCC2)n(CC(=O)NCc2cc3cnccc3[nH]2)c1=O)c1coc(-c2ccccc2)n1` [Compound 450, (R)-N-((1H-pyrrolo[3,2-c]pyridin-2-yl)methyl)-2-(2-(cyclohex-1-en-1-yl)-6-oxo-5-((1-(2-phenyloxazol-4-yl)-ethyl)amino)pyrimidin-1(6H)-yl)acetamide] is less than 100 nM; for `O=C(Cn1c(-c2ccccc2)ncc(NC(=O)c2cccc(-c3ccco3)c2)c1=O)NCc1cc2cnccc2[nH]1` [Compound 102, N-(1-(2-(((1H-pyrrolo[3,2-c]pyridin-2-yl)methyl)amino)-2-oxoethyl)-6-oxo-2-phenyl-1,6-dihydropyrimidin-5-yl)-3-(furan-2-yl)benzamide] it is less than 100 nM.
Take `CC(C)(Nc1cnc(-c2ccccc2F)n(CC(=O)NCc2cc3cnccc3[nH]2)c1=O)c1ccc2oc3ccccc3c2c1` [Compound 311, N-((1H-pyrrolo[3,2-c]pyridine-2-yl)methyl)-2-(5-((2-(dibenzo[b,d]furan-2-yl)propan-2-yl)amino)-2-(2-fluorophenyl)-6-oxopyrimidin-1(6H)-yl)acetamide]: the IC50 is 100 to 1000 nM.
Take `O=C(Cn1c(-c2ccccc2)ncc(NC(=O)c2ccc(-c3ccccc3)o2)c1=O)NCc1cc2cnccc2[nH]1` [Compound 206, N-(1-(2-(((1H-pyrrolo[3,2-c]pyridin-2-yl)methyl)amino)-2-oxoethyl)-6-oxo-2-phenyl-1,6-dihydropyrimidin-5-yl)-5-phen-ylfuran-2-carboxamide]: the 50% inhibitory concentration (IC50) was less than 100 nM.
The figure for `O=C(Cn1c(-c2ccccc2)ncc(NCCCc2ccc(S(F)(F)(F)(F)F)cc2)c1=O)NCc1cc2cnccc2[nH]1` [Compound 104, N-((1H-pyrrolo[3,2-c]pyridin-2-yl)methyl)-2-(6-oxo-5-((3-(4-(pentafluoro-lambda6-sulfaneyl)phenyl)propyl)-amino)-2-phenylpyrimidin-1(6H)-yl)acetamide] is less than 100 nM; for `C[C@@H](Nc1cnc(N2CCCCC2)n(CC(=O)NCc2cc3cnccc3[nH]2)c1=O)c1cnc(-c2ccccc2)o1` [Compound 453, (R)—N-((1H-Pyrrolo[3,2-c]pyridine-2-yl)methyl)-2-(6-oxo-5-((1-(2-phenyloxazol-5-yl)ethyl)amino)-2-(piperidin-1-yl)pyrimidin-1(6H)-yl)acetamide] it is less than 100 nM.
In the case of `O=C(Cn1c(-c2ccccc2)cnc(NCCCc2ccccc2)c1=O)N[C@@H](CO)c1cc2cnccc2[nH]1` [Compound 14, (R)-N-(2-hydroxy-1-(1H-pyr-rolo[3,2-c]pyridin-2-yl)ethyl)-2-(2-oxo-6-phenyl-3-((3-phen-ylpropyl)amino)pyrazin-1(2H)-yl)acetamide] it was greater than 1000 nM; in that of `O=C(Cn1c(-c2ccccc2)ncc(Br)c1=O)NCc1cc2cnccc2[nH]1` [Compound 71, N-((1H-pyrrolo[3,2-c]pyridin-2-yl)methyl)-2-(5-bromo-6-oxo-2-phenylpyrimidin-1(6H)-yl)acetamide], 100 to 1000 nM.
The figure for `O=C(Cn1c(-c2ccccc2)ncc(NCCCc2ccc(OC3CS(=O)(=O)C3)cc2)c1=O)NCc1cc2cnccc2[nH]1` [Compound 193, N-((1H-pyrrolo[3,2-c]pyridine-2-yl)methyl)-2-(5-((3-(4-((1,1-dioxidothietan-3-yl)oxy)phenyl)propyl)amino)-6-oxo-2-phenylpyrimidin-1(6H)-yl) acetamide] is less than 100 nM.
`O=C(NCCn1c(-c2ccccc2)ncc(NCc2ccc3oc4ccccc4c3c2)c1=O)c1cc2cnccc2[nH]1` [Compound 267, N-(2-(5-((dibenzo[b,d]furan-2-ylmethyl)amino)-6-oxo-2-phenylpyrimidin-1(6H)-yl)-ethyl)-1H-pyrrolo[3,2-c]pyr-idine-2-carboxamide]: the IC50 was greater than 1000 nM.
Regarding `O=C(Cn1c(-c2ccccc2)ncc(NC(=O)c2ncc(-c3ccccc3)[nH]2)c1=O)NCc1cc2cnccc2[nH]1` [Compound 169, N-(1-(2-(((1H-pyrrolo[3,2-c]pyridin-2-yl)methyl)amino)-2-oxoethyl)-6-oxo-2-phenyl-1,6-dihydropyrimidin-5-yl)-5-phen-yl-1H-imidazole-2-carbox-amide], the IC50 was less than 100 nM.
The figure for `Cc1ccc(-c2ncc(N[C@H](C)c3ccc4oc5ccccc5c4c3)c(=O)n2CC(=O)NCc2cc3cnccc3[nH]2)c(F)c1` [Compound 436, (R)-N-((1H-pyrrolo[3,2-c]pyridin-2-yl)methyl)-2-(5-((1-(dibenzo[b,d]furan-2-yl)ethyl)-amino)-2-(2-fluoro-4-methyl-phenyl)-6-oxopyrimidin-1(6H)-yl)acetamide] is less than 100 nM; for `O=C(Cn1c(N2CCCCC2)cnc(NCc2nnc(-c3ccccc3)s2)c1=O)NCc1cc2cnccc2[nH]1` [Compound 472, N-((1H-pyrrolo[3,2-c]pyridin-2-yl)methyl)-2-(2-oxo-3-(((5-phenyl-1,3,4-thiadiazol-2-yl)-methyl)amino)-6-(piperidin-1-yl)pyrazin-1(2H)-yl)acetamide] it is less than 100 nM.
Turning to `O=C(Cn1c(-c2ccccc2)ncc(NC(=O)c2cnc(-c3ccccc3)s2)c1=O)NCc1cc2cnccc2[nH]1` [Compound 106, N-(1-(2-(((1H-pyrrolo[3,2-c]pyridin-2-yl)methyl)amino)-2-oxoethyl)-6-oxo-2-phenyl-1,6-dihydropyrimidin-5-yl)-2-phenylthiazole-5-carboxamide], the IC50 is less than 100 nM.
Take `COC[C@H]1CCCN(c2ncc(N[C@H](C)c3ccc4oc5ccccc5c4c3)c(=O)n2CC(=O)NCc2cc3cnccc3[nH]2)C1` [Compound 467, N-((1H-pyrrolo[3,2-c]pyridin-2-yl)methyl)-2-(5-(((R)-1-(dibenzo[b,d]furan-2-yl)ethyl)-amino)-2-((S)-3-(methoxy-methyl)piperidin-1-yl)-6-oxo-pyrimidin-1(6H)-yl)acetamide]: the IC50 is greater than 1000 nM.
In the case of `O=C(Cn1c(N2CCCCC2)ncc(NC(CF)c2ccc3oc4ccccc4c3c2)c1=O)NCc1cc2cnccc2[nH]1` (single isomer, unassigned) [Compound 441] it was less than 100 nM.
Take `O=C(Cn1c(-c2ccccc2)ncc(NC(=O)c2ccc3c(c2)C(F)(F)c2ccccc2-3)c1=O)NCc1cc2cnccc2[nH]1` [Compound 204, N-(1-(2-(((1H-pyrrolo[3,2-c]pyridin-2-yl)methyl)amino)-2-oxoethyl)-6-oxo-2-phenyl-1,6-dihydropyrimidin-5-yl)-9,9-difluoro-9H-fluorene-2-carbox-amide]: the IC50 is less than 100 nM.
